ChEMBL document CHEMBL5653615 (J Biol Chem, 2013)
The source made the active and inactive calls. The rule behind the calls is not given here.

Key:
[1] = target: T1, Serine/threonine-protein kinase Nek11 (Homo sapiens) (UniProt Q8NG66); assay: Inhibition of human NEK11 at 500 nM by HotSpot assay relative to control
T1 sequence (whole entry): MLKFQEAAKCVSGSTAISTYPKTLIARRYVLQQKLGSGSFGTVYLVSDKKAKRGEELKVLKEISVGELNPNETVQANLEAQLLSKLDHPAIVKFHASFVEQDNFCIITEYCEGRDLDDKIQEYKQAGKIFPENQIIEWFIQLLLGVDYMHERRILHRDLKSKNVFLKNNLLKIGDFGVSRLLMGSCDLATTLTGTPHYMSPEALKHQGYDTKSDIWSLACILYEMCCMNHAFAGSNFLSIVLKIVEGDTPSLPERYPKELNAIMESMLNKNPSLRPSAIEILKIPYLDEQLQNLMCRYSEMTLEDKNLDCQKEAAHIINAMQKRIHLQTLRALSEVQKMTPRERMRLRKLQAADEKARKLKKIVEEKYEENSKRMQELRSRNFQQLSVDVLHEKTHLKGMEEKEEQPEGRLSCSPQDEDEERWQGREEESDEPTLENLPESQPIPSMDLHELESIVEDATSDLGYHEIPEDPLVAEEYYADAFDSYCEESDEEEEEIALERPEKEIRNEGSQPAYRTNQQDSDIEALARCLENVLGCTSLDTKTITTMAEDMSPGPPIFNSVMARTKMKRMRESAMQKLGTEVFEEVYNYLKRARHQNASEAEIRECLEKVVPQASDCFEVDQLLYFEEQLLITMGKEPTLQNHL

[2] = target: MAP/microtubule affinity-regulating kinase 3 (Homo sapiens) (UniProt P27448); assay: Inhibition of human MARK3 at 500 nM by HotSpot assay relative to control
[3] = target: CDK9/cyclin T1 (Homo sapiens) (UniProt O60563+P50750); assay: Inhibition of human CDK9/cyclin T1 at 500 nM by HotSpot assay relative to control; assay type: protein-complex assay
[4] = target: RAC-alpha serine/threonine-protein kinase (Homo sapiens) (UniProt P31749); assay: Inhibition of human AKT1 at 500 nM by HotSpot assay relative to control
[5] = target: Interleukin-1 receptor-associated kinase 1 (Homo sapiens) (UniProt P51617); assay: Inhibition of human IRAK1 at 500 nM by HotSpot assay relative to control
[6] = target: Protein kinase C gamma type (Homo sapiens) (UniProt P05129); assay: Inhibition of human PKCg at 500 nM by HotSpot assay relative to control
[7] = target: SRSF protein kinase 2 (Homo sapiens) (UniProt P78362); assay: Inhibition of human SRPK2 at 500 nM by HotSpot assay relative to control
[8] = target: Serine/threonine-protein kinase WNK3 (Homo sapiens) (UniProt Q9BYP7); assay: Inhibition of human WNK3 at 500 nM by HotSpot assay relative to control
[9] = target: Insulin receptor (Homo sapiens) (UniProt P06213); assay: Inhibition of human IR at 500 nM by HotSpot assay relative to control
[10] = target: Tyrosine-protein kinase Lck (Homo sapiens) (UniProt P06239); assay: Inhibition of human LCK at 500 nM by HotSpot assay relative to control
[11] = target: Serine/threonine-protein kinase SIK2 (Homo sapiens) (UniProt Q9H0K1); assay: Inhibition of human SIK2 at 500 nM by HotSpot assay relative to control
[12] = target: T2, Mitogen-activated protein kinase 13 (Homo sapiens) (UniProt O15264); assay: Inhibition of human MAPK13 at 500 nM by HotSpot assay relative to control
T2 sequence (whole entry): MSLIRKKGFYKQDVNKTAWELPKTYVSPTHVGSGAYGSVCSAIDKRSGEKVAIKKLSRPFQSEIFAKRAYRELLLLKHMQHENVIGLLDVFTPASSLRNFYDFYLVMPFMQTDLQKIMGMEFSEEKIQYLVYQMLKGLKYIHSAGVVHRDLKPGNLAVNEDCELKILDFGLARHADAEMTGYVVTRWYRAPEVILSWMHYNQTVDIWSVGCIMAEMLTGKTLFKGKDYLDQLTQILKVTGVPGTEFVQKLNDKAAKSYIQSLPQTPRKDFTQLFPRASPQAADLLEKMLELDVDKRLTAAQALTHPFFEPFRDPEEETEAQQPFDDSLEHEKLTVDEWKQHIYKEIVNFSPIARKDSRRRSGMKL

[13] = target: Ephrin type-A receptor 2 (Homo sapiens) (UniProt P29317); assay: Inhibition of human EPHA2 at 500 nM by HotSpot assay relative to control
[14] = target: Insulin receptor (Homo sapiens) (UniProt P06213); assay: Inhibition of wild-type human Insulin receptor activation transfected in insulin-stimulated CHO-K1 cells; assay type: cell-based
[15] = target: Calcium/calmodulin-dependent protein kinase type 1B (Homo sapiens) (UniProt Q6P2M8); assay: Inhibition of human CAMK1b at 500 nM by HotSpot assay relative to control
[16] = target: MAP kinase-activated protein kinase 3 (Homo sapiens) (UniProt Q16644); assay: Inhibition of human MAPKAPK3 at 500 nM by HotSpot assay relative to control
[17] = target: T3, Serine/threonine-protein kinase NLK (Homo sapiens) (UniProt Q9UBE8); assay: Inhibition of human NLK at 500 nM by HotSpot assay relative to control
T3 sequence (whole entry): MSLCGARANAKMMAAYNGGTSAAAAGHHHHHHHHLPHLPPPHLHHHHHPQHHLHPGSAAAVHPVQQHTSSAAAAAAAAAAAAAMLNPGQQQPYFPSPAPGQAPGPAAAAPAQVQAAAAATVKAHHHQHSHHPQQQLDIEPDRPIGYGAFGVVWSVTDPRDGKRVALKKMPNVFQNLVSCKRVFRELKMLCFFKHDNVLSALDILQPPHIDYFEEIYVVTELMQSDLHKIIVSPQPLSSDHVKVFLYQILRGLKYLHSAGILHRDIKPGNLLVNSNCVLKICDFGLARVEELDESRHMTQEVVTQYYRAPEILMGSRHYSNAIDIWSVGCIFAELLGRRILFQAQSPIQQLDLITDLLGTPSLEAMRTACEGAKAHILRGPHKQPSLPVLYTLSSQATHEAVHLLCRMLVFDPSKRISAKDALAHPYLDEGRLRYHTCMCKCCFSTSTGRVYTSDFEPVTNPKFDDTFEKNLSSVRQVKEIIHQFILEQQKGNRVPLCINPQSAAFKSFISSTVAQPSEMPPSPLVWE

[18] = target: Mitogen-activated protein kinase kinase kinase 9 (Homo sapiens) (UniProt P80192); assay: Inhibition of human MAP3K9 at 500 nM by HotSpot assay relative to control
[19] = target: Cyclin-dependent kinase 4/cyclin D1 (Homo sapiens) (UniProt P11802+P24385); assay: Inhibition of human CDK4/cyclin D1 at 500 nM by HotSpot assay relative to control; assay type: protein-complex assay
[20] = target: Glycogen synthase kinase-3 beta (Homo sapiens) (UniProt P49841); assay: Inhibition of human GSK3b at 500 nM by HotSpot assay relative to control

Insulin receptor (Homo sapiens), sequence (P06213 28-758 limits assumed): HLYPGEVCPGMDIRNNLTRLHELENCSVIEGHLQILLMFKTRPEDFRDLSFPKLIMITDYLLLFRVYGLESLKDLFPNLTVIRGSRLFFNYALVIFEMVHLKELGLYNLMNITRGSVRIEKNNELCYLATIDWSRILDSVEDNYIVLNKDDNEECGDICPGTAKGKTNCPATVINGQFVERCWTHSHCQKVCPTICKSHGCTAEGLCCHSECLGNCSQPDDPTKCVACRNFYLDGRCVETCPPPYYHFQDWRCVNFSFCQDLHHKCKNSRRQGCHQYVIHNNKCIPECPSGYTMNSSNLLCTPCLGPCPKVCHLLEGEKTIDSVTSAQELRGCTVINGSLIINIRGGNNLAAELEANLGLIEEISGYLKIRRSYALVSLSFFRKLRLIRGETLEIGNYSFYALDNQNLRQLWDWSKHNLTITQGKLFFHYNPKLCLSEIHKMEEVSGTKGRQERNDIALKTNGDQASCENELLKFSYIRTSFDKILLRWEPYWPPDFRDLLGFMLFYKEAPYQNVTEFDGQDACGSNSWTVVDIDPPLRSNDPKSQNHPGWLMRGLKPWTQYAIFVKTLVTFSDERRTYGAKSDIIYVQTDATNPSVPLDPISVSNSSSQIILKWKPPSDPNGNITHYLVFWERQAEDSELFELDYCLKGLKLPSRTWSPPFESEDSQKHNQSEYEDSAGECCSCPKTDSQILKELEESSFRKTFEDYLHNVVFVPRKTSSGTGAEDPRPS
Insulin receptor (Homo sapiens), sequence (P06213 763-1382 limits assumed): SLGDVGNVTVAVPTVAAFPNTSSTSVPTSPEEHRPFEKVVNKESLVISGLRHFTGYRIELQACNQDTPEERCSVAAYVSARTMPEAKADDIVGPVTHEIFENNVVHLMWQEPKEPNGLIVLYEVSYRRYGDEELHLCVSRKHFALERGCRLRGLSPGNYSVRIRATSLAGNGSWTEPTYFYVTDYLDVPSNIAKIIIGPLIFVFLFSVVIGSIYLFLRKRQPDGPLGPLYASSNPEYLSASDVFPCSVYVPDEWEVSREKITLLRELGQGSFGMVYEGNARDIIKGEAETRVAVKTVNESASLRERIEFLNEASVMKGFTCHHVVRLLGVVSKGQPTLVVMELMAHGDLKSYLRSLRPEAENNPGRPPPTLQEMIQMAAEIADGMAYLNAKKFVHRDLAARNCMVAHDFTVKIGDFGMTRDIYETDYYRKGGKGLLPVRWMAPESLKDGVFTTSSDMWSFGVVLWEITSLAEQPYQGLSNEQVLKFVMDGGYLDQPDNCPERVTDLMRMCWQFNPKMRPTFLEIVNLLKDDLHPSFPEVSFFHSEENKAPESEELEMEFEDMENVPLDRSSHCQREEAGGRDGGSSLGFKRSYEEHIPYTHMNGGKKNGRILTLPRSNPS
Tyrosine-protein kinase Lck (Homo sapiens), sequence (P06239 2-509 limits assumed): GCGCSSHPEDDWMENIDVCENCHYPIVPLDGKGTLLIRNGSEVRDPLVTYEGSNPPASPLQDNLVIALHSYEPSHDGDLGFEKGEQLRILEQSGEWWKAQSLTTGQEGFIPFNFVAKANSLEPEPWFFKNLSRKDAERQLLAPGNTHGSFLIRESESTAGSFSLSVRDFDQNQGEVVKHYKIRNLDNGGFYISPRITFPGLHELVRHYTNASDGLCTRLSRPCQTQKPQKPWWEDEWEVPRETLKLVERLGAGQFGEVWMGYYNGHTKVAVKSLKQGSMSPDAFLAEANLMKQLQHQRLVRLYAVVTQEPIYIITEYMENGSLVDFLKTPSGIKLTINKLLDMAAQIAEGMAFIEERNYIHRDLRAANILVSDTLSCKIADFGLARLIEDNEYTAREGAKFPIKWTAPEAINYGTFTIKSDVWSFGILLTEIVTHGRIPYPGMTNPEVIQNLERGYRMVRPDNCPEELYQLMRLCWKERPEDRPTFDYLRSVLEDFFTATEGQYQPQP
Serine/threonine-protein kinase WNK3 (Homo sapiens), sequence (Q9BYP7 whole entry): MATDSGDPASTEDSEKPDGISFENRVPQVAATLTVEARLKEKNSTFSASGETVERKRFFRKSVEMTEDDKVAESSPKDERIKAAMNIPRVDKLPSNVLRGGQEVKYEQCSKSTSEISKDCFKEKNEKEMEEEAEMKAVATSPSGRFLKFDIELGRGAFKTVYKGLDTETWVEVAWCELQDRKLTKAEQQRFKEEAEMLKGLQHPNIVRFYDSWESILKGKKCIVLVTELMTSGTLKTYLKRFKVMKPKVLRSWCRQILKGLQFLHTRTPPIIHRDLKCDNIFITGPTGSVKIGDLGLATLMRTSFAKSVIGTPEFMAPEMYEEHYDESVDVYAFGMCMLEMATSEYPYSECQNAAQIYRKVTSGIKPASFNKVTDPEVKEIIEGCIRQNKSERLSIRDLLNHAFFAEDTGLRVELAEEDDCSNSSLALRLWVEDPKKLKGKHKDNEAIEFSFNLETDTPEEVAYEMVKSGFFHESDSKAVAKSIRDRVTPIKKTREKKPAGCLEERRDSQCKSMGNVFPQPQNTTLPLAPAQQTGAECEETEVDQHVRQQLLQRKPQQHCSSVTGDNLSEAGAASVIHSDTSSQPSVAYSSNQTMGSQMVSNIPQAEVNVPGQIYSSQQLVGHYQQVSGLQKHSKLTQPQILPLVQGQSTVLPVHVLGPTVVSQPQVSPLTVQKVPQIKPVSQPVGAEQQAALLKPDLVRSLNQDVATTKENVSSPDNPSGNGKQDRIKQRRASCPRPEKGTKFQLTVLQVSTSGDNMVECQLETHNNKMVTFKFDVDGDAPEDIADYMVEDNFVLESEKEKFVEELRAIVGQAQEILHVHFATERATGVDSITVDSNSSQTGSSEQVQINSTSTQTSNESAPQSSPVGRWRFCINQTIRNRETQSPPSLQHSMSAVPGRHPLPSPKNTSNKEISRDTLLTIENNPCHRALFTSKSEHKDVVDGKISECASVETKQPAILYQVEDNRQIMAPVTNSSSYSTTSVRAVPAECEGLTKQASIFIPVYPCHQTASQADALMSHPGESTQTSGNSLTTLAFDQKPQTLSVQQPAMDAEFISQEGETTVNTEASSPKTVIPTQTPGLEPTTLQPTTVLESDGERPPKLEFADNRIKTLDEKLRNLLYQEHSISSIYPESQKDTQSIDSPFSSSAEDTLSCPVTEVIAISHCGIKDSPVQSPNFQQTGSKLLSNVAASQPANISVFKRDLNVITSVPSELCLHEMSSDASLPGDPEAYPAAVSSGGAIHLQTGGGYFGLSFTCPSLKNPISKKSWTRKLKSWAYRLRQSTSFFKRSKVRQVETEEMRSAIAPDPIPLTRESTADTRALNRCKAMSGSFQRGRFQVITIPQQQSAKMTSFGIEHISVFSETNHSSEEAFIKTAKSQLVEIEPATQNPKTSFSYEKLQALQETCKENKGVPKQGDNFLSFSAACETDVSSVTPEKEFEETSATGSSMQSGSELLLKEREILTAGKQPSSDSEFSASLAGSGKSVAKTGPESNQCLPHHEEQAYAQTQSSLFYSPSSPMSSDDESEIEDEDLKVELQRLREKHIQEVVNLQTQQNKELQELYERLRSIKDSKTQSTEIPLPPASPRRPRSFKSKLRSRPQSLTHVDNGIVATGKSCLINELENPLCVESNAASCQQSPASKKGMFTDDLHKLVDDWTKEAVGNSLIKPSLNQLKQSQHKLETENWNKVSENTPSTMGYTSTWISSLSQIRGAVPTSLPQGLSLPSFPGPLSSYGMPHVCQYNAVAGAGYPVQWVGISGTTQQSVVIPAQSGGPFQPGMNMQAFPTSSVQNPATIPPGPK
RAC-alpha serine/threonine-protein kinase (Homo sapiens), sequence (P31749 whole entry): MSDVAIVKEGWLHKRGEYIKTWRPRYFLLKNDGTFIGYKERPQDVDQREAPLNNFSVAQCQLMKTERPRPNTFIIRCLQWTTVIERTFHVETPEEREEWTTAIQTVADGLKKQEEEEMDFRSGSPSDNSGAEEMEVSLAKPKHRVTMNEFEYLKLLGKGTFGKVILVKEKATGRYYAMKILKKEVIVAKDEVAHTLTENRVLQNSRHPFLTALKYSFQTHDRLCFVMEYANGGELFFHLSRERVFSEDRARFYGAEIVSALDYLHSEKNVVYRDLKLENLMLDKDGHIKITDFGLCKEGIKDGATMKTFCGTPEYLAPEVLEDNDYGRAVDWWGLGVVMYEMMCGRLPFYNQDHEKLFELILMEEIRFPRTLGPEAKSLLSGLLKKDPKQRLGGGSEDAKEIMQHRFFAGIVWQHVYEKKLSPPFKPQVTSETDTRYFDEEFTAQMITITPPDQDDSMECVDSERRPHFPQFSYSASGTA
SRSF protein kinase 2 (Homo sapiens), sequence (P78362 whole entry, looked up): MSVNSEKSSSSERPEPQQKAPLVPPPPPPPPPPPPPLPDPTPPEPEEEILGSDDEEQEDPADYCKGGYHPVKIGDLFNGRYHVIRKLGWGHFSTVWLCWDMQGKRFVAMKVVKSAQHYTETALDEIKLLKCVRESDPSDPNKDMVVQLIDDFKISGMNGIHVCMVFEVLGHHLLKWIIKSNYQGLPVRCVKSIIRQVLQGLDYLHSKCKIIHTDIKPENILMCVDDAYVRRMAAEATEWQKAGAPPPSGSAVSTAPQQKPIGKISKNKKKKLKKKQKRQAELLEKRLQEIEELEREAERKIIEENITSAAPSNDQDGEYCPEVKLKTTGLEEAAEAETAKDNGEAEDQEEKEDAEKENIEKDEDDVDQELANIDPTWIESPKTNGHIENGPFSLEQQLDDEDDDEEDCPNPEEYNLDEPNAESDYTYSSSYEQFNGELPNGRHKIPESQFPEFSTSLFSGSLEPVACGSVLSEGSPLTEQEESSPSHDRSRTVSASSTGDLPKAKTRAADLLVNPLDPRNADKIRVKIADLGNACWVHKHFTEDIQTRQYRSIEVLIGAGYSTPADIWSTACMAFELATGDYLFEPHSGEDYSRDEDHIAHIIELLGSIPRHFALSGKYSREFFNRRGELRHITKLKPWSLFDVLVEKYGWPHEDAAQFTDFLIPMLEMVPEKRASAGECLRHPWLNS

Compound	inhibition [1] [%]	inhibition [2] [%]	inhibition [3] [%]	inhibition [4] [%]	inhibition [5] [%]	inhibition [6] [%]	inhibition [7] [%]	inhibition [8] [%]	inhibition [9] [%]	inhibition [10] [%]	inhibition [11] [%]	inhibition [12] [%]	inhibition [13] [%]	inhibition [14]	inhibition [15] [%]	inhibition [16] [%]	inhibition [17] [%]	inhibition [18] [%]	inhibition [19] [%]	inhibition [20] [%]
Nc1n[nH]c2nnc(-c3c(-c4ccccc4)nn4ccccc34)cc12	4.86	0.66	2.74	1.98	0.31	-2.64	26.2	-1.28	21.7	4.93	6.36	-0.81	1.69	inactive	0.39	-2.71	-2.21	0.07	10.8	-9.06
Oc1n[nH]c2nnc(-c3c(-c4ccccc4)nn4ccccc34)cc12	-4.37	-2.48	3.66	2.37	-2.21	-2.44	0.47	0.29	72.6	-0.49	14.5	3.76	-0.91	inactive	-0.91	-0.14	-0.83	-2.83	1.57	-9.9
